Measured values as given in US20100035866A1, “NOVEL SUBSTITUTED-1, 1-DIOXO-BENZO[1,2,4]THIADIAZIN-3ONES, PREPARATION METHOD THEREOF, AND PHARMACEUTICAL COMPOSITION CONTAINING THE SAME” (KOREA RESEARCH INSTITUTE OF CHEMICAL TECHNOLOGY, priority 2006, published 2010).

Experiments:
hD2L receptor = biological target: T1, hD2L receptor (Homo sapiens, UniProt P14416); experiment: Dopamine receptor family binding: D2 ([3H]spiperone); conditions: [3H]spiperone 1 nM; read-out: Binding affinity, IC50 (nM), D2
T1 construct: purchased BioSignal Packard Inc., Montreal, Canada
T1 sequence (P14416 whole entry): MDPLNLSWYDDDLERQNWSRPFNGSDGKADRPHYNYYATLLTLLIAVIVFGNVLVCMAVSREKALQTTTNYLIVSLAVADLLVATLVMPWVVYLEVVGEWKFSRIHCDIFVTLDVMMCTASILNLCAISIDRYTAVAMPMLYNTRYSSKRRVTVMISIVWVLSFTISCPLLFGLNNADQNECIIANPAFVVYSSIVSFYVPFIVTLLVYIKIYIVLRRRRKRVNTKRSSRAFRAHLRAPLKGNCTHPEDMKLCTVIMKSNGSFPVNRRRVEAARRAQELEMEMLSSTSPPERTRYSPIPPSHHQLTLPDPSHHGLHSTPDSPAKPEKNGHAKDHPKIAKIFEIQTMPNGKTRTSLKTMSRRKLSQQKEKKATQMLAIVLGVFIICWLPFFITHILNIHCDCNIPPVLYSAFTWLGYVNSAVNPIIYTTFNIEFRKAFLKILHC
Procedure: (§1) 2-2: Binding Assays of Dopamine Receptor Family
(§2) The radioligands used were [^3H]spiperone (for hD2L and hD3 receptors, 1 nM) and [^3H] YM-09151-2 (for hD4.2 receptor, 0.06 nM). Radioligand bindings were performed by the protocols provided by the supplier of receptor membranes (BioSignal Packard Inc., Montreal, Canada). Briefly, the buffer used in D2 or D3 receptor binding assay was 50 mM Tris-HCl (pH 7.4), 10 mM MgCl2, 1 mM EDTA, or 50 mM Tris-HCl (pH 7.4), 5 mM MgCl2 5 mM EDTA, 5 mM KCl, 1.5 mM CaCl2, 120 mM NaCl, respectively. In [^3H] YM-09151-2 receptor binding assays, the buffer containing 50 mM Tris-HCl (pH 7.4), 5 mM MgCl2, 5 mM EDTA, 5 mM KCl and 1.5 mM CaCl2 was used. […] Competition binding studies were carried out with 7-8 concentrations of the test compound run in duplicate tubes, and isotherms from three assays were calculated by computerized nonlinear regression analysis (GraphPad Prism Program, San Diego, […]) to yield median inhibitory concentration (IC50) values.

hD3 receptor = biological target: T2, hD3 receptor (Homo sapiens, UniProt P35462); experiment: Dopamine receptor family binding: D3 ([3H]spiperone); conditions: [3H]spiperone 1 nM; read-out: Binding affinity, IC50 (nM), D3
T2 construct: purchased BioSignal Packard Inc., Montreal, Canada
T2 sequence (P35462 whole entry): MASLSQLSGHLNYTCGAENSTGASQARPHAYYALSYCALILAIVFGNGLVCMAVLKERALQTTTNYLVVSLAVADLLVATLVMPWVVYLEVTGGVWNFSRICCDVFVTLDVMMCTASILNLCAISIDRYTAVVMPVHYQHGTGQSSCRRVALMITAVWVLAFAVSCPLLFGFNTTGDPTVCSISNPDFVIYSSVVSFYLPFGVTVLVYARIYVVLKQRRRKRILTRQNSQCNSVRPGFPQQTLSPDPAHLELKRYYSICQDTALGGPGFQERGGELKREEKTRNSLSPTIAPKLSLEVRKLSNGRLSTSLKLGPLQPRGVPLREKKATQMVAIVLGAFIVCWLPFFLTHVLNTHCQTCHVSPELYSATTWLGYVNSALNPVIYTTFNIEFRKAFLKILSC

5-HT7 = biological target: T3, 5-HT7 (Homo sapiens, UniProt P34969); experiment: Radioligand binding, 5-HT receptor family: 5-HT7 ([3H]LSD); conditions: CHO-K1 human recombinant receptor, [3H]LSD 3 nM; read-out: Binding affinity, IC50 (nM), 5-HT7
T3 construct: purchased Euroscreen/BioSignal Packard Inc
T3 sequence (P34969 whole entry): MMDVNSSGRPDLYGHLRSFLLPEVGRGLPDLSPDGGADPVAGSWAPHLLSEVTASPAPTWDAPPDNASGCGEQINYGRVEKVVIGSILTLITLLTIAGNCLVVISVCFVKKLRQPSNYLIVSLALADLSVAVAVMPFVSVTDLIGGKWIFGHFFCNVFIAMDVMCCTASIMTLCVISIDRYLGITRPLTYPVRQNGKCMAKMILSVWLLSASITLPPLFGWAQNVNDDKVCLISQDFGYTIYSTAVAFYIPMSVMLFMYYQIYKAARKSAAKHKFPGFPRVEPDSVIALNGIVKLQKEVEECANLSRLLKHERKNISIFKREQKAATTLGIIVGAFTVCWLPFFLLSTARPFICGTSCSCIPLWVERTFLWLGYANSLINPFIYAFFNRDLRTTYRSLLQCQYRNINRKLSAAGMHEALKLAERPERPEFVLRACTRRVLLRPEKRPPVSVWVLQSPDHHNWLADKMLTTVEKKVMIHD
Procedure: Radioligand bindings were performed according to the test method provided by the supplier of receptor membrane (Euroscreen/BioSignal Packard Inc.). The detailed assay conditions and the results were shown in the following Table 3 and Table 4, respectively.

5-HT2a = biological target: T4, 5-HT2a (Homo sapiens, UniProt P28223); experiment: Radioligand binding, 5-HT receptor family: 5-HT2a ([3H]Ketanserin); conditions: CHO-K1 human recombinant receptor, [3H]Ketanserin 1 nM; read-out: Binding affinity, IC50 (nM), 5-HT2a
T4 construct: purchased Euroscreen/BioSignal Packard Inc
T4 sequence (P28223 whole entry): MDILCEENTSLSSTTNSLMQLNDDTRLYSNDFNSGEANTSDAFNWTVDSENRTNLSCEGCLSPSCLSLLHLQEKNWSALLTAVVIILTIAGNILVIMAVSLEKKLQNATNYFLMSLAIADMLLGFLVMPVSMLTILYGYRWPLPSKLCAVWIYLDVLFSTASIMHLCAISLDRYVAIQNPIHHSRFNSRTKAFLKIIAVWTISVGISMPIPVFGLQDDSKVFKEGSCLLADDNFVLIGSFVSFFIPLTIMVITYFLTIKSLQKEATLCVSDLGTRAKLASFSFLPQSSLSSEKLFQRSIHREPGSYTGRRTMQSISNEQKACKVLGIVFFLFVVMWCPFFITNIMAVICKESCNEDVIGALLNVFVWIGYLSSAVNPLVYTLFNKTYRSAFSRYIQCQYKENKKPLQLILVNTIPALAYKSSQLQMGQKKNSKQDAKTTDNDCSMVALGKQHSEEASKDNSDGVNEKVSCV

hD4.2 receptor = biological target: T5, hD4.2 receptor (Homo sapiens, UniProt P21917, DEL265-296); experiment: Dopamine receptor family binding: D4 ([3H]YM-09151-2); conditions: [3H]YM-09151-2 0.06 nM; read-out: Binding affinity, IC50 (nM), D4
T5 construct: purchased BioSignal Packard Inc., Montreal, Canada
T5 sequence (P21917 with tags, fused parts or gaps DEL265-296): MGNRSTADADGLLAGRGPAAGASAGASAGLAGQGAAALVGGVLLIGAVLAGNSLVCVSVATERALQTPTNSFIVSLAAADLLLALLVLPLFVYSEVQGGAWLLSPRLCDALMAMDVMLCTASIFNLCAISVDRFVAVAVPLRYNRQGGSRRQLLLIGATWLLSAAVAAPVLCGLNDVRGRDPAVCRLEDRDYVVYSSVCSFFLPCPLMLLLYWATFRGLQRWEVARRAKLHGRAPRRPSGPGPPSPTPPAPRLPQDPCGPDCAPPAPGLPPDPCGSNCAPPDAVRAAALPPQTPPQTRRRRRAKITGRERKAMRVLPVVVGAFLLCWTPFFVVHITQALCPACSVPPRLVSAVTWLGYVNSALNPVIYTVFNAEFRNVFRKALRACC
Procedure: as §1, §2

[1] = biological target: Human serotonin 5-HT6 receptor (Homo sapiens, UniProt P50406); experiment: [3H]LSD binding assay on cloned 5-HT6 receptor; conditions: IC50 (nM)
Chain of Human serotonin 5-HT6 receptor (P50406 whole entry): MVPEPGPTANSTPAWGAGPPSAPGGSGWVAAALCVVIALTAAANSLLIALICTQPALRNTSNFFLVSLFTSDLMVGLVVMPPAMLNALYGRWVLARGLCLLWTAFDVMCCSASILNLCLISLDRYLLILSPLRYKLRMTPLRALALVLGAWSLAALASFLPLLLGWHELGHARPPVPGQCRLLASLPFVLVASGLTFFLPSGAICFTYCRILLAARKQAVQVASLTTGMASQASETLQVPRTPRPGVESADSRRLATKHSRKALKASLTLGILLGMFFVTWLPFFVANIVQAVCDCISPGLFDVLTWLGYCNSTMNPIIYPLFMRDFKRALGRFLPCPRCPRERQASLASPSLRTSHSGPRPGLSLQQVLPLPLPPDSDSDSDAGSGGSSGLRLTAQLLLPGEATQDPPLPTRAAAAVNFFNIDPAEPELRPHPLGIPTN

5-HT2c = biological target: T6, 5-HT2c (Homo sapiens, UniProt P28335); experiment: Radioligand binding, 5-HT receptor family: 5-HT2c ([3H]Mesulergine); conditions: CHO-K1 human recombinant receptor, [3H]Mesulergine 1 nM; read-out: Binding affinity, IC50 (nM), 5-HT2c
T6 construct: purchased Euroscreen/BioSignal Packard Inc
T6 sequence (P28335 33-458): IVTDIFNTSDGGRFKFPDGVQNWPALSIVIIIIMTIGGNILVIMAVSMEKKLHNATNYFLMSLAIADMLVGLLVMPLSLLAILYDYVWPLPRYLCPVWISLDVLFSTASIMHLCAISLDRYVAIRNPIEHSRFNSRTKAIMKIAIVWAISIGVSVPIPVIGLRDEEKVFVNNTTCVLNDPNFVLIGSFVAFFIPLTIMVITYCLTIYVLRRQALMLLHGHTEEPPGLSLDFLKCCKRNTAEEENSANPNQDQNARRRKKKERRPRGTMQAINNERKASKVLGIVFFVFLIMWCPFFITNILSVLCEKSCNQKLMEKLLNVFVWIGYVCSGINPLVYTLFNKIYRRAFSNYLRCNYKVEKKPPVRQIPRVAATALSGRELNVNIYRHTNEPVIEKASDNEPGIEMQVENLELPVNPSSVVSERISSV

5-HT1a = biological target: T7, 5-HT1a (Homo sapiens, UniProt P08908); experiment: Radioligand binding, 5-HT receptor family: 5-HT1a ([3H]8-OH-DPAT); conditions: CHO-K1 human recombinant receptor, [3H]8-OH-DPAT 0.5 nM; read-out: Binding affinity, IC50 (nM), 5-HT1a
T7 construct: purchased Euroscreen/BioSignal Packard Inc
T7 sequence (P08908 1-422): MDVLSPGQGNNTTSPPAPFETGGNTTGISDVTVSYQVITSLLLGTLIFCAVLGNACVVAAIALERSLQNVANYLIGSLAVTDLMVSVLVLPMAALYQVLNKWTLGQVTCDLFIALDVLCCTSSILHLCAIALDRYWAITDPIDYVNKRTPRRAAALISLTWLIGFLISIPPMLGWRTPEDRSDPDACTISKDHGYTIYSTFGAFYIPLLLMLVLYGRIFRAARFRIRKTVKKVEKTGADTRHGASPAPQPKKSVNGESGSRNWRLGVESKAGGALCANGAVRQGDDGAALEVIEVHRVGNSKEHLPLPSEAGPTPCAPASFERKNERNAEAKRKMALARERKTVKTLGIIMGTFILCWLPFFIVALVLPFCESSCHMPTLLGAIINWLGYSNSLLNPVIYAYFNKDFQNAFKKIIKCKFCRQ

D1 = D1 (Homo sapiens, UniProt P21728); experiment: Dopamine receptor family binding: D1; conditions: read-out: Binding affinity, IC50 (nM), D1
Chain of D1 (P21728 whole entry): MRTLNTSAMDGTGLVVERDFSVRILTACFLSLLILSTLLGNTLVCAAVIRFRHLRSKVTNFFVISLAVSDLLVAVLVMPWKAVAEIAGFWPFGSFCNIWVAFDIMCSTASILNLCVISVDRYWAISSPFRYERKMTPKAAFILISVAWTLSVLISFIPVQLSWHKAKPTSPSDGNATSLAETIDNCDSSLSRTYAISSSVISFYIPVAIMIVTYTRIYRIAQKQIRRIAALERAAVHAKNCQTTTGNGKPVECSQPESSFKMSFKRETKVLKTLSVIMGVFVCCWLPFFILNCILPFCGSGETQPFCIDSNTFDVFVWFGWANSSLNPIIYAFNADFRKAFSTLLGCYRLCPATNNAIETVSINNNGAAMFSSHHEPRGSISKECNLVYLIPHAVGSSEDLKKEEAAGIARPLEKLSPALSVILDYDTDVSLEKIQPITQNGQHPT

[2] = Binding affinity, 5-HT6, Table 4
[3] = binding affinity to the 5-HT6 receptor, Table 2, 1.87 nM [3H]LSD, cloned human receptor membranes from Sf21 cells, 37° C. 60 min

SMILES | IC50 (hD2L receptor) | melting point | IC50 (hD3 receptor) | IC50 (5-HT7) | IC50 (5-HT2a) | IC50 (hD4.2 receptor) | IC50 [1, 2] | IC50 [1, 3] | IC50 (5-HT2c) | IC50 (5-HT1a) | IC50 (D1)
CN1CCN(c2cc(Cl)cc3c2S(=O)(=O)N(Cc2ccccc2F)C(=O)N3Cc2ccccc2)CC1 [Example 2, 4-Benzyl-6-chloro-2-(2-fluoro-benzyl)-8-(4-methyl-piperazin-1-yl)-1,1-dioxo-1,4-dihydro-2H-1λ^6-benzo[1,2,4]thiadiazin-3-one] | > 10000 nM | 118 to 120 °C | 390 nM | > 10000 nM | 335 nM | > 10000 nM | 1.9 nM | 1.9 nM | 578 nM | 2300 nM | 
CN1CCN(c2cc(Cl)cc3c2S(=O)(=O)N(Cc2cccc(F)c2)C(=O)N3Cc2ccccc2)CC1 [Example 3, 4-Benzyl-6-chloro-2-(3-fluoro-benzyl)-8-(4-methyl-piperazin-1-yl)-1,1-dioxo-1,4-dihydro-2H-1λ^6-benzo[1,2,4]thiadiazin-3-one] | > 10000 nM | 85 to 87 °C | 537 nM | > 10000 nM | 846 nM | > 10000 nM | 0.7 nM | 0.7 nM | 2190 nM | 5980 nM | 
CN1CCN(c2cc(Cl)cc3c2S(=O)(=O)N(Cc2ccccc2Cl)C(=O)N3Cc2ccccc2)CC1 [Example 5, 4-Benzyl-6-chloro-2-(2-chloro-benzyl)-8-(4-methyl-piperazin-1-yl)-1,1-dioxo-1,4-dihydro-2H-1λ^6-benzo[1,2,4]thiadiazin-3-one] | 5090 nM | 132 to 133 °C | 93 nM | > 10000 nM | 396 nM | > 10000 nM | 1.3 nM | 1.3 nM | 240 nM | 3010 nM | 
CN1CCN(c2cc(Cl)cc3c2S(=O)(=O)N(Cc2ccc(Cl)cc2)C(=O)N3Cc2ccccc2)CC1 [Example 7, 4-Benzyl-6-chloro-2-(4-chloro-benzyl)-8-(4-methyl-piperazin-1-yl)-1,1-dioxo-1,4-dihydro-2H-1λ^6-benzo[1,2,4]thiadiazin-3-one] | > 10000 nM | 99 to 100 °C | 555 nM | > 10000 nM | 488 nM | > 10000 nM | 2.3 nM | 2.3 nM | 1540 nM | 3910 nM | 
COc1ccc(CN2C(=O)N(Cc3ccccc3)c3cc(Cl)cc(N4CCN(C)CC4)c3S2(=O)=O)cc1 [Example 18, 4-Benzyl-6-chloro-2-(4-methoxy-benzyl)-8-(4-methyl-piperazin-1-yl)-1,1-dioxo-1,4-dihydro-2H-1λ^6-benzo[1,2,4]thiadiazin-3-one] | 6580 nM |  | 1220 nM | > 10000 nM | 563 nM | > 10000 nM | 3.6 nM | 3.6 nM | 990 nM | 3420 nM | > 10000 nM
C[C@H](c1ccccc1)N1C(=O)N(Cc2ccccc2)c2cc(Cl)cc(N3CCN(C)CC3)c2S1(=O)=O [Example 25, 4-Benzyl-6-chloro-8-(4-methyl-piperazin-1-yl)-1,1-dioxo-2-[(R)-1-phenyl-ethyl]-1,4-dihydro-2H-1λ^6-benzo[1,2,4]thiadiazin-3-one] | 1920 nM |  | 265 nM | 8560 nM | 350 nM | > 10000 nM | 1.1 nM | 1.1 nM | 691 nM | > 10000 nM | 963 nM
CCN1C(=O)N(Cc2ccccc2)c2cc(Cl)cc(N3CCN(C)CC3)c2S1(=O)=O [Example 33, 4-Benzyl-6-chloro-2-ethyl-8-(4-methyl-piperazin-1-yl)-1,1-dioxo-1,4-dihydro-2H-1λ^6-benzo[1,2,4]thiadiazin-3-one] | > 10000 nM | 167 to 169 °C | 3170 nM | > 10000 nM | 119 nM | > 10000 nM | 0.3 nM | 0.3 nM | 1240 nM | 2620 nM | 
CCCN1C(=O)N(Cc2ccccc2)c2cc(Cl)cc(N3CCN(C)CC3)c2S1(=O)=O [Example 34, 4-Benzyl-6-chloro-8-(4-methyl-piperazin-1-yl)-2-propyl-1,1-dioxo-1,4-dihydro-2H-1λ^6-benzo[1,2,4]thiadiazin-3-one] | > 10000 nM | 91 to 93 °C | 1860 nM | > 10000 nM | 436 nM | > 10000 nM | 0.4 nM | 0.4 nM | 203 nM | 2390 nM | 
CCCCCCCCN1C(=O)N(Cc2ccccc2)c2cc(Cl)cc(N3CCN(C)CC3)c2S1(=O)=O [Example 39, 4-Benzyl-6-chloro-8-(4-methyl-piperazin-1-yl)-2-octyl-1,1-dioxo-1,4-dihydro-2H-1λ^6-benzo[1,2,4]thiadiazin-3-one] | > 10000 nM | 88 to 91 °C | 130 nM | 3170 nM | 1320 nM | > 10000 nM | 1.8 nM | 1.8 nM | 1050 nM | 894 nM | 
CN1CCN(c2cc(Cl)cc3c2S(=O)(=O)N(Cc2cccc4ccccc24)C(=O)N3Cc2ccccc2)CC1 [Example 41, 4-Benzyl-6-chloro-8-(4-methyl-piperazin-1-yl)-2-naphthalen-1-ylmethyl-1,1-dioxo-1,4-dihydro-2H-1λ^6-benzo[1,2,4]thiadiazin-3-one] | > 10000 nM | 114 to 115 °C | 420 nM | > 10000 nM | 365 nM | > 10000 nM | 0.8 nM | 0.8 nM | 257 nM | > 10000 nM | 
